Results published in article PMC9011347, “Small-Molecule Inhibitors Targeting Lipolysis in Human Adipocytes” (Journal of the American Chemical Society, 2022).

Experiments:
Assay in all cases: Off-target lipid hydrolase assay, Expi293 lysates
Type in all cases: biochemical
PNPLA6 = biological target: T1, PNPLA6 (Homo sapiens, UniProt Q8IY17); conditions: NG-497 100 µM, substrate LPC
T1 construct: made in house; host or cells: Expi293 cells, lysate
Protocol: (§1) Fig. S3: Investigation of off-target effects of NG-497 on structurally and functionally related lipid hydrolases. (a) […]
(§2) NG-497, inhibited PNPLA1/CGI-58-dependent ω-O-acylceramide formation. (b-h) Enzymes were overexpressed in Expi293 cells and cell lysates were used as source of enzymatic activity. Cell lysates were incubated with the indicated substrates 1-oleoyl phosphatidylcholine (LPC), di-oleoyl phosphatidic acid (PA), di-octanoyl phosphatidylglycerol (PG), or para-nitrophenylvalerate (pNPV). Experiments were performed in the presence or absence of NG-497 (100 µM) and the formation of reaction products was monitored. Cell lysates of LacZ-transfected cells were used to detect basal cellular activity. As positive controls, enzymes were inactivated with lipase inhibitors Orlistat (40 µM), R-BEL (10 µM), KLH-45 (20 nM), HSLi (10 µM), or PMSF (10µM).
(§3) Data were calculated relative to the basal activity detected in LacZ-transfected controls. […]
(§4) LPL activity was inhibited using an anti-LPL antibody. All data are presented as mean ± S.D. Statistical significance was determined via ANOVA followed by Bonferroni post hoc test ( ***, p < 0.001).
(§5) (1 picture or pasted object on this page, not shown here) […]
(§6) 2-mercaptoethanol, 4% sodium dodecyl sulfate, 20% glycerin, bromophenol blue) at 98°C for 10 min. For detection of protein expression, anti-Xpress (Thermo Fisher Scientific #R910-25), anti-mouse-HRP Trueblot (Rockland #18-8817-33), and anti-FLAG HRP (MiliporeSigma #A8592) antibodies were used.
(§7) Analysis of toxicity in HepG2 hepatocytes. For LDH-based viability assays, HepG2 cells were seeded in 96-well plates in DMEM (Gibco) containing 100 IU/ml penicillin, 100 IU/ml streptomycin (MilliporeSigma), and 3% heat-inactivated FCS. […]
(§8) Serum stability of ATGL inhibitors. Inhibitors were incubated in 200 µl human serum for 0 and 3 h at 37°C and extracted in 1 ml MTBE/methanol (3/1, v/v) containing acetic acid/butylated hydroxytoluene (500nM). The extraction mixture was shaken at 1,400 x rpm for 1 h at RT and centrifuged for 10 min at 13,000 x rpm for phase separation. 700 µl of the upper, organic phase were collected, dried under a stream of nitrogen, and lipids resolved in 200 µl methanol/isopropanol/H2O (6/3/1), for UPLC- […]
(§9) Chromatographic separation was modified after Knittelfelder et al.2 using an AQUITY UPLC system (Waters Corporation, Milford, USA) equipped with a ZORBAX Eclipse XDB-C18- column (3 × 30 mm, 1.8 µm; Agilent Technologies, Santa Clara, USA) starting a 15 min gradient with 80% solvent A (water/methanol, 1/1, v/v) and 20% solvent B (2-propanol). Both solvents contained ammonium acetate (10 mM), formic acid (0.1 vol%) and phosphoric acid (8 µM) and the column was kept at 50°C. […]

PNPLA7 = biological target: T2, PNPLA7 (Homo sapiens, UniProt Q6ZV29); conditions: NG-497 100 µM, substrate LPC
T2 construct: made in house; host or cells: Expi293 cells, lysate
T2 sequence (Q6ZV29 whole entry): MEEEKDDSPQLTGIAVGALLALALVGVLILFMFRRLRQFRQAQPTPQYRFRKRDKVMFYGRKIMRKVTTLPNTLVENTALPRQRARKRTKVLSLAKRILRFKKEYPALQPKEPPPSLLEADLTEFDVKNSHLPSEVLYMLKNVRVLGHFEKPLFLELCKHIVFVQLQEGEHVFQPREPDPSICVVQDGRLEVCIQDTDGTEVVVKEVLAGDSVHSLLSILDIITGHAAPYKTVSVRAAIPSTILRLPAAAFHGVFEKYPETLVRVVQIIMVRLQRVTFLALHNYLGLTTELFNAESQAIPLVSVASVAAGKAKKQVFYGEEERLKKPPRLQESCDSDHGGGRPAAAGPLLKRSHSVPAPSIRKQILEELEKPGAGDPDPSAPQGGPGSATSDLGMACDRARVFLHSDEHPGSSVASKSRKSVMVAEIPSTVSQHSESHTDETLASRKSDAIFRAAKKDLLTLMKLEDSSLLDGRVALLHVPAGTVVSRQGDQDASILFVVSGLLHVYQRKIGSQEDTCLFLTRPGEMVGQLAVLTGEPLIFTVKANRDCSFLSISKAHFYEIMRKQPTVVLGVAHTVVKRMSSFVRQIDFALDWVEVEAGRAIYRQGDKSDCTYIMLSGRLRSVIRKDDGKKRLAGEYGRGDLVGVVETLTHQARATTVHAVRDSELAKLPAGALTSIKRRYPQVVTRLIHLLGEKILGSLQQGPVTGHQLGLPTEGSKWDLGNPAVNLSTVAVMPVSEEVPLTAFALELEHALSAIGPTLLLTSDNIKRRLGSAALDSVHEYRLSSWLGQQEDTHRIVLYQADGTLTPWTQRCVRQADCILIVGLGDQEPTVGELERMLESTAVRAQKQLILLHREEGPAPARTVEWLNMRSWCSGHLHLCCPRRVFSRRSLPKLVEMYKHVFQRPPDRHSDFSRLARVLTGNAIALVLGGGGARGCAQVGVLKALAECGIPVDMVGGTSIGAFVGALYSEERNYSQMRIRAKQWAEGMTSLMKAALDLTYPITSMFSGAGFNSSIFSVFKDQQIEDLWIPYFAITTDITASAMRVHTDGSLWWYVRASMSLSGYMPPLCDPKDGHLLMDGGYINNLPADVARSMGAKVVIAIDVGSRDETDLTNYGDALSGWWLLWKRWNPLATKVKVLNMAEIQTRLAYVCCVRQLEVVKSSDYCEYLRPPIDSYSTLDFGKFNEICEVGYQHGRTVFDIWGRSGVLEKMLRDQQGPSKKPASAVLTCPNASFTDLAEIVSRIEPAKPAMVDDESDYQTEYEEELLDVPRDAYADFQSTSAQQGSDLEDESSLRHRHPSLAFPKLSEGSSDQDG
Protocol: as §1, §2, §3, §4, §5, §6, §7, §8, §9

PNPLA8 = biological target: T3, PNPLA8 (Homo sapiens, UniProt Q9NP80); conditions: NG-497 100 µM, substrate PA
T3 construct: made in house; host or cells: Expi293 cells, lysate
T3 sequence (Q9NP80 whole entry): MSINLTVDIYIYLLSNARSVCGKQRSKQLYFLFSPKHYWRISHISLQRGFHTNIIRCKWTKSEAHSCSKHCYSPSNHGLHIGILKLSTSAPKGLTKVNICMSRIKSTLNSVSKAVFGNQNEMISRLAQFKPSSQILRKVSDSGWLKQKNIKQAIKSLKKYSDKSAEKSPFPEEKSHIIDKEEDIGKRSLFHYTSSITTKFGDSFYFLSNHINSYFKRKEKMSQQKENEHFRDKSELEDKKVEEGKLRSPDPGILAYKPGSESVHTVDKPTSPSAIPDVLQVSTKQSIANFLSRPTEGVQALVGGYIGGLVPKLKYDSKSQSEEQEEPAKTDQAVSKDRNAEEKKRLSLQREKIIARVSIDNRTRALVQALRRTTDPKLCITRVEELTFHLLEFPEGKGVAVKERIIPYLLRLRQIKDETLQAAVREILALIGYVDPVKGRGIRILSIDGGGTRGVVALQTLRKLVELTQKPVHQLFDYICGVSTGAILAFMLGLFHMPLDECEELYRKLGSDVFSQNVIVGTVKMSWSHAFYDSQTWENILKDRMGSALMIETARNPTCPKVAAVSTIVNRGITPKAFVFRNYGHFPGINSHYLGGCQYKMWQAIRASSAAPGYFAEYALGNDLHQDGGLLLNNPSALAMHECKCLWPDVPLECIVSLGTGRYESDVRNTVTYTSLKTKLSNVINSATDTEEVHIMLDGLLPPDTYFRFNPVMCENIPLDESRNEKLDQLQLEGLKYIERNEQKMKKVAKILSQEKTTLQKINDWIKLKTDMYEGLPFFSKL
Protocol: as §1, §2, §3, §4, §5, §6, §7, §8, §9

PNPLA9 = biological target: T4, PNPLA9 (Homo sapiens, UniProt O60733); conditions: NG-497 100 µM, substrate PG
T4 construct: made in house; host or cells: Expi293 cells, lysate
T4 sequence (O60733 whole entry): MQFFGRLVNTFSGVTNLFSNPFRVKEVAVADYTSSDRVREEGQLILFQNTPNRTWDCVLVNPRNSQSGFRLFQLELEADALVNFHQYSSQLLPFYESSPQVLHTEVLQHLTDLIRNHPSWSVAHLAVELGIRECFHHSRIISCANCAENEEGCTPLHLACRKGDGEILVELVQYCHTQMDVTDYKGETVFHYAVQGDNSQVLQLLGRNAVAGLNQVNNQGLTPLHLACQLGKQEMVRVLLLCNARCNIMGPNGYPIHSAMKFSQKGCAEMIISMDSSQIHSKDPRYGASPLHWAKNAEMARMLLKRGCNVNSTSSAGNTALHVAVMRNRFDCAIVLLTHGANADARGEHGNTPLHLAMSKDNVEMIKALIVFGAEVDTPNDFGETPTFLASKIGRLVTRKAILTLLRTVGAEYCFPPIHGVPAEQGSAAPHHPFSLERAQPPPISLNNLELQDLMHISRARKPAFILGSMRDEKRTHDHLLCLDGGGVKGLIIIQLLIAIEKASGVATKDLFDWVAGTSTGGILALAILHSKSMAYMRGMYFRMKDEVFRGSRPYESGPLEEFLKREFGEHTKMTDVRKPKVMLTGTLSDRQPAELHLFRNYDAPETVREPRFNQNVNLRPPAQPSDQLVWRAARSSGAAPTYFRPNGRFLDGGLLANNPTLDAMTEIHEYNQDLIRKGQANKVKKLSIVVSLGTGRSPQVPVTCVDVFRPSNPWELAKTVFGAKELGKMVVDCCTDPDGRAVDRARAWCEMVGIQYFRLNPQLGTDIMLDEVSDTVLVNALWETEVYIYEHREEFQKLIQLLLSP
Protocol: as §1, §2, §3, §4, §5, §6, §7, §8, §9

T1 sequence (Q8IY17 whole entry): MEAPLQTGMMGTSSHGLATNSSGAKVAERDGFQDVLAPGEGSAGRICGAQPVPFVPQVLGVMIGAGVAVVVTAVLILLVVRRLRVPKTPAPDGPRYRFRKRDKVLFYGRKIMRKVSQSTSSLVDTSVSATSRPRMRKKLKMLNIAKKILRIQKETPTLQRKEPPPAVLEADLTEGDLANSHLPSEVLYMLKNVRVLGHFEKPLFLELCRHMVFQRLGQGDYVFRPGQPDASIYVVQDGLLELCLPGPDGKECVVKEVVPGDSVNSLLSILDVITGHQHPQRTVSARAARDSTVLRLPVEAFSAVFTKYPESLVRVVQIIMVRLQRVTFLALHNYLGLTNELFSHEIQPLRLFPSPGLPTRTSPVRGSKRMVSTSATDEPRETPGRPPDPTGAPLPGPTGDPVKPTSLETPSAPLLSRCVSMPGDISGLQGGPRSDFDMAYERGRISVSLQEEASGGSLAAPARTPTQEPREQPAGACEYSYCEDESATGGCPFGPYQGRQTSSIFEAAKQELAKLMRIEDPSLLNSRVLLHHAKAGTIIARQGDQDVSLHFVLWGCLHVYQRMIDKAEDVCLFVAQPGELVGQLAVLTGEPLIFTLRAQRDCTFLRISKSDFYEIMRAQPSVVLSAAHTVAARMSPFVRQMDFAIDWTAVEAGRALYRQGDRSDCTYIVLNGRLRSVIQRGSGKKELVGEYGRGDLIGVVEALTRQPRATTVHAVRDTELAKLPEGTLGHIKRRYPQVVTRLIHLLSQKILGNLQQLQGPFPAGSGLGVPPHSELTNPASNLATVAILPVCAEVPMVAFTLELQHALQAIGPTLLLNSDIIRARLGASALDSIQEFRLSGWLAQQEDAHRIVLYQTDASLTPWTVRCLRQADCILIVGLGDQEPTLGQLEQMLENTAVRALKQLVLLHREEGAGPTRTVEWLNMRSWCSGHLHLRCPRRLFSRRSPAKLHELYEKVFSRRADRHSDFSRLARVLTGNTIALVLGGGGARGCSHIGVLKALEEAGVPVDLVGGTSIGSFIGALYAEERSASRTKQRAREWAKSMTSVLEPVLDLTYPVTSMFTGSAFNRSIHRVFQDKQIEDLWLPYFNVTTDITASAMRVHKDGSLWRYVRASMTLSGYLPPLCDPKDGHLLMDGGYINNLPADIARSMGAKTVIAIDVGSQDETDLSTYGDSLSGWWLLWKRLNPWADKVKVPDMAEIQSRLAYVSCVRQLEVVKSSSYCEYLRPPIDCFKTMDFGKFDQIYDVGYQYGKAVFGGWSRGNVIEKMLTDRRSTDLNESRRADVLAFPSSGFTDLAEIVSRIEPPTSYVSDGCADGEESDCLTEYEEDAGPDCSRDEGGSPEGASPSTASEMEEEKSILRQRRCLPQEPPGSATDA

CCOc1ccc(-c2cc(OC)cc(C(=O)OC(C)C)n2)cc1 [NG-497]
did not observe inhibition: inhibition of PNPLA6 (PNPLA6) | inhibition of PNPLA7 (PNPLA7) | inhibition of PNPLA8 (PNPLA8) | inhibition of PNPLA9 (PNPLA9)
